Among the data in US10987359B2, “Oxadiazepinone derivatives and methods of treating hepatitis B infections” (priority 2016, dated 2021) are EC50 values, retold here.

The assay concerns HBV. The assay is described as follows: HBV replication inhibition assay (BDNA assay) in HepG2.2.15 cells. In kind it is cell-based. To be noted: HepG2.2.15 cells, read-out: DNA EC50. In outline: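 HepG2.2.15 cells with stably integrated HBV were treated with serially diluted compounds at 0.5% DMSO for 6 days, with medium and compound refreshed at day 3. Encapsidated HBV DNA from DNase-treated supernatant was quantified by branched DNA assay. EC50 came from % inhibition versus DMSO, fitted non-linearly.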

[1] abbreviates: Hepatitis B virus, HepG2.2.15, HBV replication assay (BDNA assay).
Setting [2] is: HBV replication assay (BDNA assay).

Like-named read-outs stand apart in the source and are kept apart here.

For the molecule `CC1=NN(C)C(=O)c2c3c(nn2C1)CCN(C(=O)Nc1ccc(F)c(Cl)c1)C3` [Compound 232, N-(3-chloro-4-fluorophenyl)-2,4-dimethyl-1-oxo-1,2,5,8,9,11-hexahydro-10H-pyrido[4′,3′:3,4]pyrazolo[5,1-d][1,2,5]triazepine-10-carboxamide], the EC50 under setting [1] fell in the range of 1 to 100 nM.

For the molecule `CN1O[C@H](CN)Cn2nc3c(c2C1=O)CN(C(=O)Nc1ccc(F)c(C#N)c1)CC3` (stereo in doubt) [Compound 114_E1, (S*)-4-(aminomethyl)-N-(3-cyano-4-fluoro-phenyl)-2-methyl-1-oxo-5,8,9,11-tetrahydro-4H-pyrido[2,3]pyrazolo[2,4-d][1,2,5]oxadiazepine-10-carboxamide], under setting [1], the EC50 was 1 to 100 nM.

In the case of `CN1OC(COC(=O)C(C)(C)C)Cn2nc3c(c2C1=O)CN(C(=O)Nc1ccc(F)c(Cl)c1)CC3` (centres unmarked) [Compound 055, (10-((3-chloro-4-fluorophenyl)carbamoyl)-2-methyl-1-oxo-1,2,4,5,8,9,10,11-octahydropyrido[4′,3′:3,4]pyrazolo[5,1-d][1,2,5]oxadiazepin-4-yl)methyl pivalate], under setting [1], the EC50 fell in the range of 1 to 100 nM.

For the molecule `C[C@@H]1Cc2nn3c(c2CN1C(=O)Nc1ccc(F)c(C#N)c1)C(=O)N(C)OC(CNCC(F)F)C3` (stereo in doubt) [Compound 183_D1, (4S*,9R)—N-(3-cyano-4-fluorophenyl)-4-(((2,2-difluoroethyl)amino)methyl)-2,9-dimethyl-1-oxo-1,4,5,8,9,11-hexahydropyrido[4′,3′:3,4]pyrazolo[5,1-d][1,2,5]oxadiazepine-10(2H)-carboxamide], under setting [1], the EC50 lay in the range of 1 to 100 nM.

Take `C[C@@H]1Cc2nn3c(c2CN1C(=O)Nc1cc(C(F)(F)F)ccc1F)C(=O)N(C)O[C@@H](CO)C3` (relative stereo) [Compound 157_D2, (4R*,9R)—N-[2-fluoro-5-(trifluoromethyl)phenyl]-4-(hydroxymethyl)-2,9-dimethyl-1-oxo-5,8,9,11-tetrahydro-4H-pyrido[2,3]pyrazolo[2,4-d][1,2,5]oxadiazepine-10-carboxamide]: the concentration for a half-maximal effect (EC50) under setting [1] is 1 to 100 nM.

Consider `CC(O)CN1CCn2nc3c(c2C(=O)N1C)CN(C(=O)Nc1ccc(F)c(C#N)c1)[C@H](C)C3` (stereo partly drawn) [Compound 223, (9R)—N-(3-Cyano-4-fluorophenyl)-3-(2-hydroxypropyl)-2,9-dimethyl-1-oxo-1,2,3,4,5,8,9,11-octahydro-10H-pyrido[4′,3′:3,4]pyrazolo[5,1-d][1,2,5]triazepine-10-carboxamide], for which, under setting [1], the EC50 was in the range of 100 to 500 nM.

Take `CC(=O)NCC1Cn2nc3c(c2C(=O)N(C)O1)CN(C(=O)Nc1ccc(F)c(C#N)c1F)CC3` (single isomer, unassigned) [Compound 167_E1, (S*)-4-(acetamidomethyl)-N-(3-cyano-2,4-difluorophenyl)-2-methyl-1-oxo-1,4,5,8,9,11-hexahydropyrido[4′,3′:3,4]pyrazolo[5,1-d][1,2,5]oxadiazepine-10(2H)-carboxamide]: under setting [1], the EC50 fell in the range of 1 to 100 nM.

As to `CN1OC(CF)Cn2nc3c(c2C1=O)CN(C(=O)Nc1cc(F)c(F)c(Cl)c1)CC3` (single isomer, unassigned) [Compound 044_E1, (S*)—N-(3-chloro-4,5-difluorophenyl)-4-(fluoromethyl)-2-methyl-1-oxo-1,4,5,8,9,11-hexahydropyrido[4′,3′:3,4]pyrazolo[5,1-d][1,2,5]oxadiazepine-10(2H)-carboxamide], the EC50 under setting [1] lay within 1 to 100 nM.

For the molecule `Cc1cc(NC(=O)N2Cc3c(nn4c3C(=O)N(C)OC(CO)C4)C[C@H]2C)ccc1F` (single isomer, unassigned) [Compound 083_E1, (4S*,9R)—N-(4-fluoro-3-methylphenyl)-4-(hydroxymethyl)-2,9-dimethyl-1-oxo-1,4,5,8,9,11-hexahydropyrido[4′,3′:3,4]pyrazolo[5,1-d][1,2,5]oxadiazepine-10(2H)-carboxamide], the EC50 under setting [1] lay within 1 to 100 nM.

With `Cc1cc(NC(=O)N2Cc3c(nn4c3C(=O)N(C)OC(COCC(F)F)C4)C[C@H]2C)ccc1F` (stereo in doubt) [Compound 125_D2, (4R*,9R)-4-((2,2-difluoroethoxy)methyl)-N-(4-fluoro-3-methylphenyl)-2,9-dimethyl-1-oxo-1,4,5,8,9,11-hexahydropyrido[4′,3′:3,4]pyrazolo[5,1-d][1,2,5]oxadiazepine-10(2H)-carboxamide], the EC50 under setting [2] was in the range of 1 to 100 nM.

For the molecule `CC1CON(C)C(=O)c2c3c(nn21)CCN(C(=O)Nc1ccc(F)c(Cl)c1)C3` (centres unmarked) [Compound 061, N-(3-chloro-4-fluoro-phenyl)-2,5-dimethyl-1-oxo-5,8,9,11-tetrahydro-4H-pyrido[2,3]pyrazolo[2,4-d][1,2,5]oxadiazepine-10-carboxamide], the EC50 under setting [1] lay in the range of 1 to 100 nM.

Turning to `CN1OC(CNCC(F)F)Cn2nc3c(c2C1=O)CN(C(=O)Nc1ccc(F)c(C#N)c1F)CC3` (single isomer, unassigned) [Compound 186_E1, (S*)—N-(3-cyano-2,4-difluorophenyl)-4-(((2,2-difluoroethyl)amino)methyl)-2-methyl-1-oxo-1,4,5,8,9,11-hexahydropyrido[4′,3′:3,4]pyrazolo[5,1-d][1,2,5]oxadiazepine-10(2H)-carboxamide], the EC50 under setting [1] was 1 to 100 nM.

As to `C[C@@H]1Cc2nn3c(c2CN1C(=O)Nc1cc(Cl)c(F)cc1F)C(=O)N(C)OC(CO)C3` (stereo in doubt) [Compound 090_E2, (4R*,9R)—N-(5-chloro-2,4-difluorophenyl)-4-(hydroxymethyl)-2,9-dimethyl-1-oxo-1,4,5,8,9,11-hexahydropyrido[4′,3′:3,4]pyrazolo[5,1-d][1,2,5]oxadiazepine-10(2H)-carboxamide], the EC50 under setting [2] was in the range of 1 to 100 nM.

In the case of `C=CCOCC1Cn2nc3c(c2C(=O)N(C)O1)CN(C(=O)Nc1ccc(F)c(Cl)c1)CC3` (centres unmarked) [Compound 102, 4-(allyloxymethyl)-N-(3-chloro-4-fluoro-phenyl)-2-methyl-1-oxo-5,8,9,11-tetrahydro-4H-pyrido[2,3]pyrazolo[2,4-d][1,2,5]oxadiazepine-10-carboxamide], the EC50 under setting [1] lay within 1 to 100 nM.

Turning to `CN1OC(CNCC(F)F)Cn2nc3c(c2C1=O)CN(C(=O)Nc1cc(Br)c(F)cc1F)CC3` (single isomer, unassigned) [Compound 193_E1, (S*)—N-(5-bromo-2,4-difluorophenyl)-4-(((2,2-difluoroethyl)amino)methyl)-2-methyl-1-oxo-1,4,5,8,9,11-hexahydropyrido[4′,3′:3,4]pyrazolo[5,1-d][1,2,5]oxadiazepine-10(2H)-carboxamide], under setting [1], the EC50 lay within 1 to 100 nM.

Consider `CN1OC(CNS(=O)(=O)CC(F)(F)F)Cn2nc3c(c2C1=O)CN(C(=O)Nc1ccc(F)c(Cl)c1)CC3` (centres unmarked) [Compound 130, N-(3-chloro-4-fluorophenyl)-2-methyl-1-oxo-4-(((2,2,2-trifluoroethyl)sulfonamido)methyl)-1,4,5,8,9,11-hexahydropyrido[4′,3′:3,4]pyrazolo[5,1-d][1,2,5]oxadiazepine-10(2H)-carboxamide], for which, under setting [1], the EC50 is 1 to 100 nM.

On to `C[C@@H]1Cc2nn3c(c2CN1C(=O)Nc1ccc(F)c(Br)c1F)C(=O)N(C)OC(CO)C3` (single isomer, unassigned) [Compound 092_E2, (4R*,9R)—N-(3-bromo-2,4-difluorophenyl)-4-(hydroxymethyl)-2,9-dimethyl-1-oxo-1,4,5,8,9,11-hexahydropyrido[4′,3′:3,4]pyrazolo[5,1-d][1,2,5]oxadiazepine-10(2H)-carboxamide], for which the EC50 under setting [2] was 1 to 100 nM.

Take `CN1OC(COC(F)(F)F)Cn2nc3c(c2C1=O)CN(C(=O)Nc1ccc(F)c(Cl)c1)CC3` (centres unmarked) [Compound 128, N-(3-chloro-4-fluorophenyl)-2-methyl-1-oxo-4-((trifluoromethoxy)methyl)-1,4,5,8,9,11-hexahydropyrido[4′,3′:3,4]pyrazolo[5,1-d][1,2,5]oxadiazepine-10(2H)-carboxamide]: the EC50 under setting [1] lay in the range of 1 to 100 nM.

In the case of `CC(=O)NCC1Cn2nc3c(c2C(=O)N(C)O1)CN(C(=O)Nc1cc(Br)c(F)cc1F)CC3` (single isomer, unassigned) [Compound 174_E1, (S*)-4-(acetamidomethyl)-N-(5-bromo-2,4-difluorophenyl)-2-methyl-1-oxo-1,4,5,8,9,11-hexahydropyrido[4′,3′:3,4]pyrazolo[5,1-d][1,2,5]oxadiazepine-10(2H)-carboxamide], the EC50 under setting [1] fell in the range of 1 to 100 nM.

In the case of `C[C@@H]1Cc2nn3c(c2CN1C(=O)Nc1ccc(F)c(C#N)c1)C(=O)N(C)OC(C(=O)N(C)CC(F)F)C3` (stereo in doubt) [Compound 155_D2, (4R*,9R)—N10-(3-cyano-4-fluorophenyl)-N4-(2,2-difluoroethyl)-N4,2,9-trimethyl-1-oxo-1,4,5,8,9,11-hexahydropyrido[4′,3′:3,4]pyrazolo[5,1-d][1,2,5]oxadiazepine-4,10(2H)-dicarboxamide], the EC50 under setting [2] was in the range of 1 to 100 nM.

For the molecule `CC(C)C(=O)NCC1Cn2nc3c(c2C(=O)N(C)O1)CN(C(=O)Nc1ccc(F)c(Cl)c1)CC3` (centres unmarked) [Compound 200, N-(3-chloro-4-fluorophenyl)-4-(isobutyramidomethyl)-2-methyl-1-oxo-1,4,5,8,9,11-hexahydropyrido[4′,3′:3,4]pyrazolo[5,1-d][1,2,5]oxadiazepine-10(2H)-carboxamide], the EC50 under setting [1] was in the range of 1 to 100 nM.

Turning to `CC(=O)NCC1Cn2nc3c(c2C(=O)N(C)O1)CN(C(=O)Nc1ccc(F)c(C#N)c1)[C@H](C)C3` (single isomer, unassigned) [Compound 176_D2, (4R*,9R)-4-(acetamidomethyl)-N-(3-cyano-4-fluorophenyl)-2,9-dimethyl-1-oxo-1,4,5,8,9,11-hexahydropyrido[4′,3′:3,4]pyrazolo[5,1-d][1,2,5]oxadiazepine-10(2H)-carboxamide], under setting [2], the EC50 was 1 to 100 nM.

Regarding `CN1OC(C(N)=O)Cn2nc3c(c2C1=O)CN(C(=O)Nc1ccc(F)c(Cl)c1)CC3` (centres unmarked) [Compound 072, N10-(3-chloro-4-fluoro-phenyl)-2-methyl-1-oxo-5,8,9,11-tetrahydro-4H-pyrido[2,3]pyrazolo[2,4-d][1,2,5]oxadiazepine-4,10-dicarboxamide], under setting [1], the concentration for a half-maximal effect (EC50) was in the range of 1 to 100 nM.
